Laboratory results taken from the NIST ThermoML archive (doi:10.1016/j.jct.2015.07.032).
Numbers after ± are expanded uncertainties.

Key:
[1] = relative permittivity at various frequencies (dimensionless); conditions: 100 kPa, Liquid, Frequency=1 MHz, Parallel plate capacitor
[2] = relative permittivity at various frequencies (dimensionless); xn = mol fraction of the nth substance listed; conditions: 100 kPa, Liquid, Frequency=1 MHz, Parallel plate capacitor

CCCCO [butan-1-ol]
[1]
Conditions	relative permittivity
293.15 K	18.21 ± 0.36
298.15 K	17.58 ± 0.35
303.15 K	16.95 ± 0.34

NC1CCCCC1 [cyclohexylamine] + CCCCCCCO
relative permittivity, [2]
Conditions	293.15 K	298.15 K	303.15 K
x2 = 0	4.62 ± 0.09	4.53 ± 0.09	4.45 ± 0.09
x2 = 0.0522	4.93 ± 0.1	4.83 ± 0.1	4.74 ± 0.09
x2 = 0.1037	5.22 ± 0.1	5.11 ± 0.1	5.01 ± 0.1
x2 = 0.2039	5.8 ± 0.12	5.7 ± 0.11	5.61 ± 0.11
x2 = 0.2903	6.29 ± 0.13	6.15 ± 0.12	6.01 ± 0.12
x2 = 0.3955	6.93 ± 0.14	6.76 ± 0.14	6.6 ± 0.13
x2 = 0.4467	7.27 ± 0.15	7.08 ± 0.14	6.91 ± 0.14
x2 = 0.5072	7.67 ± 0.15	7.45 ± 0.15	7.26 ± 0.15
x2 = 0.5554	8.01 ± 0.16	7.78 ± 0.16	7.56 ± 0.15
x2 = 0.5918	8.26 ± 0.17	8.01 ± 0.16	7.78 ± 0.16
x2 = 0.6575	8.72 ± 0.17	8.45 ± 0.17	8.19 ± 0.16
x2 = 0.6959	9.01 ± 0.18	8.71 ± 0.17	8.44 ± 0.17
x2 = 0.7433	9.39 ± 0.19	9.07 ± 0.18	8.77 ± 0.18
x2 = 0.7933	9.81 ± 0.2	9.46 ± 0.19	9.13 ± 0.18
x2 = 0.8177	10.03 ± 0.2	9.67 ± 0.19	9.34 ± 0.19
x2 = 0.8881	10.7 ± 0.21	10.29 ± 0.21	9.9 ± 0.2
x2 = 0.9463	11.35 ± 0.23	10.89 ± 0.22	10.45 ± 0.21

CCCCO [butan-1-ol] + NC1CCCCC1
[2], x1 = 1
Conditions	relative permittivity
293.15 K	18.21 ± 0.36
298.15 K	17.58 ± 0.35
303.15 K	16.95 ± 0.34

NC1CCCCC1 [cyclohexylamine] + CCCO
relative permittivity, [2]
Conditions	293.15 K	298.15 K	303.15 K
x2 = 0	4.62 ± 0.09	4.53 ± 0.09	4.45 ± 0.09
x2 = 0.034	4.88 ± 0.1	4.78 ± 0.1	4.68 ± 0.09
x2 = 0.1154	5.64 ± 0.11	5.08 ± 0.51	5.37 ± 0.11
x2 = 0.213	6.58 ± 0.13	6.42 ± 0.13	6.26 ± 0.13
x2 = 0.3031	7.66 ± 0.15	7.46 ± 0.15	7.26 ± 0.15
x2 = 0.3996	9.02 ± 0.18	8.76 ± 0.18	8.5 ± 0.17
x2 = 0.4469	9.77 ± 0.2	9.48 ± 0.19	9.19 ± 0.18
x2 = 0.4962	10.61 ± 0.21	10.29 ± 0.21	9.97 ± 0.2
x2 = 0.5499	11.61 ± 0.23	11.25 ± 0.23	10.89 ± 0.22
x2 = 0.6056	12.69 ± 0.25	12.29 ± 0.25	11.9 ± 0.24
x2 = 0.6998	14.69 ± 0.29	14.24 ± 0.28	13.79 ± 0.28
x2 = 0.7953	16.94 ± 0.34	16.43 ± 0.33	15.92 ± 0.32
x2 = 0.8464	18.08 ± 0.36	17.54 ± 0.35	17.01 ± 0.34
x2 = 0.8913	19.21 ± 0.38	18.71 ± 0.37	18.14 ± 0.36
x2 = 0.9509	20.44 ± 0.41	19.85 ± 0.4	19.21 ± 0.38
x2 = 0.9798	21.09 ± 0.42	20.41 ± 0.41	19.77 ± 0.4

CCCO [propan-1-ol]
[1]
Conditions	relative permittivity
293.15 K	21.23 ± 0.42
298.15 K	20.54 ± 0.41
303.15 K	19.84 ± 0.4

CCCCCCCCCCO [decan-1-ol] + NC1CCCCC1
[2], x1 = 1
Conditions	relative permittivity
293.15 K	8.41 ± 0.17
298.15 K	8.01 ± 0.16
303.15 K	7.64 ± 0.15

CCCCCCCO [heptan-1-ol] + NC1CCCCC1
[2], x1 = 1
Conditions	relative permittivity
293.15 K	11.97 ± 0.24
298.15 K	11.47 ± 0.23
303.15 K	10.98 ± 0.22

CCCO [propan-1-ol] + NC1CCCCC1
[2], x1 = 1
Conditions	relative permittivity
293.15 K	21.23 ± 0.42
298.15 K	20.54 ± 0.41
303.15 K	19.84 ± 0.4

NC1CCCCC1 [cyclohexylamine] + CCCCO
relative permittivity, [2]
Conditions	293.15 K	298.15 K	303.15 K
x2 = 0	4.62 ± 0.09	4.53 ± 0.09	4.45 ± 0.09
x2 = 0.0493	4.99 ± 0.1	4.9 ± 0.1	4.8 ± 0.1
x2 = 0.1081	5.46 ± 0.11	5.35 ± 0.11	5.23 ± 0.1
x2 = 0.2107	6.37 ± 0.13	6.22 ± 0.12	6.07 ± 0.12
x2 = 0.3104	7.39 ± 0.15	7.2 ± 0.14	7.01 ± 0.14
x2 = 0.403	8.47 ± 0.17	8.22 ± 0.16	7.99 ± 0.16
x2 = 0.4521	9.08 ± 0.18	8.82 ± 0.18	8.56 ± 0.17
x2 = 0.4995	9.73 ± 0.19	9.44 ± 0.19	9.15 ± 0.18
x2 = 0.5556	10.55 ± 0.21	10.21 ± 0.2	9.9 ± 0.2
x2 = 0.5974	11.18 ± 0.22	10.82 ± 0.22	10.49 ± 0.21
x2 = 0.6987	12.81 ± 0.26	12.4 ± 0.25	11.98 ± 0.24
x2 = 0.7968	14.53 ± 0.29	14.04 ± 0.28	13.57 ± 0.27
x2 = 0.8955	16.31 ± 0.33	15.76 ± 0.32	15.24 ± 0.3
x2 = 0.9472	17.26 ± 0.35	16.67 ± 0.33	16.11 ± 0.32
x2 = 0.9773	17.82 ± 0.36	17.2 ± 0.34	16.63 ± 0.33

NC1CCCCC1 [cyclohexylamine]
[1]
Conditions	relative permittivity
293.15 K	4.62 ± 0.09
298.15 K	4.53 ± 0.09
303.15 K	4.45 ± 0.09

NC1CCCCC1 [cyclohexylamine] + CCCCCCCCCCO
relative permittivity, [2]
Conditions	293.15 K	298.15 K	303.15 K
x2 = 0	4.62 ± 0.09	4.53 ± 0.09	4.45 ± 0.09
x2 = 0.0561	4.87 ± 0.1	4.78 ± 0.1	4.69 ± 0.09
x2 = 0.1027	5.05 ± 0.1	4.95 ± 0.1	4.85 ± 0.1
x2 = 0.2012	5.4 ± 0.11	5.29 ± 0.11	5.19 ± 0.1
x2 = 0.2947	5.73 ± 0.11	5.6 ± 0.11	5.49 ± 0.11
x2 = 0.4077	6.09 ± 0.12	5.95 ± 0.12	5.82 ± 0.12
x2 = 0.5107	6.42 ± 0.13	6.26 ± 0.13	6.11 ± 0.12
x2 = 0.5522	6.56 ± 0.13	6.38 ± 0.13	6.22 ± 0.12
x2 = 0.604	6.72 ± 0.13	6.53 ± 0.13	6.36 ± 0.13
x2 = 0.6528	6.88 ± 0.14	6.68 ± 0.13	6.5 ± 0.13
x2 = 0.697	7.02 ± 0.14	6.81 ± 0.14	6.61 ± 0.13
x2 = 0.7474	7.2 ± 0.14	6.97 ± 0.14	6.76 ± 0.14
x2 = 0.7859	7.34 ± 0.15	7.09 ± 0.14	6.87 ± 0.14
x2 = 0.8348	7.54 ± 0.15	7.27 ± 0.15	7.02 ± 0.14
x2 = 0.8915	7.81 ± 0.16	7.51 ± 0.15	7.22 ± 0.14
x2 = 0.942	8.08 ± 0.16	7.73 ± 0.15	7.41 ± 0.15

CCCCCCCO [heptan-1-ol]
[1]
Conditions	relative permittivity
293.15 K	11.97 ± 0.24
298.15 K	11.47 ± 0.23
303.15 K	10.98 ± 0.22

CCCCCCCCCCO [decan-1-ol]
[1]
Conditions	relative permittivity
293.15 K	8.41 ± 0.17
298.15 K	8.01 ± 0.16
303.15 K	7.64 ± 0.15
